Test results: US20250019370A1, “L-LYSINE SALT OF 4-CHLORO-5-[4-(2,6-DICHLOROPHENYL)SULFONYLPIPERAZIN-1-YL]-1-BENZOFURAN-2-CARBOXYLIC ACID AND VARIOUS FORMS THEREOF” (ENYO PHARMA, priority 2023, published 2025)

Key:
[1] = Pharmacokinetic study Experiment #4, oral administration in rats; type: in vivo, rat; conditions: 10 mg EqEYP001/Kg, male rats
Experimental: In a fourth study (Experiment #4), EYP001, EYP001 L-lysine salt amorphous Form and EYP001 L-lysine salt Form VI in aqueous formulations (0.5% CMC, 0.25% Tween 80, water) were orally administrated at a dose of 10 mg EqEYP001/Kg in 8 male rats for each compound (4 rats on day 1 and 4 rats on day 2 for each compound). Blood samples were taken at 0.25 h, 0.5 h, 1 h, 2 h, 4 h, 6 h, 8 h, 12 h, and 24 h after oral administration.

[2] = Pharmacokinetic study Experiment #2, oral administration in rats; type: in vivo, rat; conditions: rat, in vivo, 50 mg EqEYP001/Kg, male rats, aqueous formulation
Experimental: In a second study (Experiment #2), EYP001 and EYP001 L-lysine salt Form I in aqueous formulations (0.5% CMC, 0.25% Tween 80, water) were orally administrated at a dose of 50 mg EqEYP001/Kg in 8 male rats for each compound. Blood samples were taken at 0.25 h, 0.5 h, 1 h, 2 h, 4 h, 6 h, 8 h, 12 h, and 24 h after oral administration.

[3] = Pharmacokinetic study Experiment #1, oral administration in rats; type: in vivo, rat; conditions: rat, in vivo, 50 mg EqEYP001/Kg, male rats, aqueous formulation
Experimental: In a first study (Experiment #1), EYP001, EYP001 Meglumine salt, and EYP001 L-lysine salt Form I in aqueous formulations (0.5% CMC, 0.25% Tween 80, water) were orally administrated at a dose of 50 mg EqEYP001/Kg in 3 male rats for each compound. Blood samples were taken at 0.25 h, 0.5 h, 1 h, 2 h, 4 h, 6 h, 8 h, 12 h, and 24 h after oral administration.

[4] = Solubility kinetics in FeSSIF medium; type: physicochemical; conditions: for Soluble fraction: 37 ° C.
Experimental: The solubility kinetics of the salt forms as well as the native EYP001 free acid form were determined in FaSSIF and FeSSIF media, and in a pH 4.5 acetate buffer as detailed below: The samples were prepared by adding an excess of each tested bulk (salt or native EYP001) to a given volume of test medium. […] In FaSSIF medium, the soluble concentration was assessed after 24 hours of stirring. […] At each time point, the “supernatant” was isolated and diluted in a solvent mixture allowing its injection into the chromatographic system. The concentration in solution in the test medium was determined by HPLC with external standardization.

[5] = Pharmacokinetic study Experiment #3, oral administration in rats; type: in vivo, rat; conditions: rat, plasma, 10 mg EqEYP001/Kg, male rats, aqueous formulation
Experimental: In a third study (Experiment #3), EYP001 and EYP001 L-lysine salt Form I in aqueous formulations (0.5% CMC, 0.25% Tween 80, water) were orally administrated at a dose of 10 mg EqEYP001/Kg in 6-8 male rats for each compound. Blood samples were taken at 0.25 h, 0.5 h, 1 h, 2 h, 4 h, 6 h, 8 h, 12 h, and 24 h after oral administration.

[6] = Solubility kinetics in pH 4.5 acetate buffer; type: physicochemical; conditions: 37 ° C.
Experimental: The solubility kinetics of the salt forms as well as the native EYP001 free acid form were determined in FaSSIF and FeSSIF media, and in a pH 4.5 acetate buffer as detailed below:
The samples were prepared by adding an excess of each tested bulk (salt or native EYP001) to a given volume of test medium. The suspension was stirred by orbital stirring over 1 hour (in both pH 4.5 acetate buffer and FeSSIF medium) or 24 hours (inFaSSIF medium) at 37° C., protected from light.
In pH 4.5 acetate buffer, the soluble concentration was assessed after 0.5 hour and 1 hour of stirring.
At each time point, the “supernatant” was isolated and diluted in a solvent mixture allowing its injection into the chromatographic system. The concentration in solution in the test medium was determined by HPLC with external standardization.

[7] = Solubility kinetics in FaSSIF medium; type: physicochemical; conditions: after 24 h
Experimental: The solubility kinetics of the salt forms as well as the native EYP001 free acid form were determined in FaSSIF and FeSSIF media, and in a pH 4.5 acetate buffer as detailed below: The samples were prepared by adding an excess of each tested bulk (salt or native EYP001) to a given volume of test medium. The suspension was stirred by orbital stirring over 1 hour (in both pH 4.5 acetate buffer and FeSSIF medium) or 24 hours ([…] medium) at 37° C., protected from light. In FaSSIF medium, the soluble concentration was assessed after 24 hours of stirring. […] At each time point, the “supernatant” was isolated and diluted in a solvent mixture allowing its injection into the chromatographic system. The concentration in solution in the test medium was determined by HPLC with external standardization.

[8] = Polymorph screening (solids analysed by XRPD); type: physicochemical; conditions: amorphous material as starting material
Experimental: A polymorph screening was performed on EYP001 L-lysine salt crystalline form I (form I as starting material unless otherwise specified).
A number of unique materials with different patterns were produced, including crystalline forms I-IV and an amorphous material. All solids from the screening experiments were analysed by XRPD analysis and the resulting patterns compared to that of the reference. The observed solids and their ways of obtention are described in Table 16.

[9] = Stability of freeze-dried amorphous material under ambient conditions; type: physicochemical
Experimental: The amorphous material was also prepared by freeze drying of EYP001 L-lysine salt (form I). EYP001 L-lysine salt (form I) was dissolved in CH3CN/H2O (62:38 v:v) at a concentration of 20 mg/mL. Then the solution was freeze-dried to form amorphous EYP001 L-lysine salt. This amorphous material was found stable over at least 19 days under ambient conditions.

[10] = Dynamic Vapor Sorption (DVS) analysis (gas water sorption); type: physicochemical
Experimental: The dynamic vapor sorption (DVS) analysis (gas water sorption) was performed on a DVS-Intrinsic incubator (SMS Ltd), equipped with DVS-Intrinsic Control Software 1.0. The sample, placed in an aluminium basket holder, was submitted to a full-cycle analysis (sorption followed by desorption cycle) under the following conditions:
The sample was first pre-dried under a stream of dry air until a stabilized sample mass was observed. Then, the relative humidity was increased by 5% increments. At each step, the sample mass was allowed to increase until equilibrium is reached (according to a given dm/dt target), and then a new relative humidity rise occurred. Relative humidity was ramped up to 95%. After equilibration at this point, desorption began in a similar stepwise manner, with sample mass decrease again allowed to stabilize after each incremental humidity decrease.
With both segments of the above-described method, the sample mass recording allowed describing of the whole vapor water sorption/desorption behaviour versus relative humidity.

[11] = Thermogravimetric analysis (TGA), mass losses upon heating; type: physicochemical; conditions: listed as EYP001 L-lysine salt (amorphous form)
Experimental: Thermogravimetric analysis was performed on a TA Instruments TGA Hi-Res 2950 apparatus equipped with an evolved gas analysis furnace. A sample was placed in an opened aluminium basket and analysed according to the following conditions: […]

[12] = Entry 4*: no solvent, 23% RH stress
[13] = Entry 5*: no solvent, 40° C./75% RH stress
[14] = Entry 6*: no solvent, 59% RH stress
[15] = Entry 11*: THF, flash evaporation
[16] = aqueous formulation, listed as EYP001 L-lysine salt (Amorphous Form)
[17] = versus EYP001 free acid, listed as EYP001 L-lysine salt (Amorphous Form)
[18] = after 0.5 h, listed as EYP001 L-Lysine salt (Amorphous form)
[19] = after 1 h, listed as EYP001 L-Lysine salt (Amorphous form)

## O=C(O)c1cc2c(Cl)c(N3CCN(S(=O)(=O)c4c(Cl)cccc4Cl)CC3)ccc2o1 [EYP001, 4-chloro-5-[4-(2,6-dichlorophenyl)sulfonylpiperazin-1-yl]-1-benzofuran-2-carboxylic acid]
[1]; rat, in vivo, aqueous formulation
  Cmax: 1440 ng/mL
[1]; rat, in vivo, aqueous formulation, read-out: Mean AUClast
  AUC(0-t): 3380 ng·h/mL
[2]
  Cmax: 5580 ng/mL
[2]; read-out: Mean AUC0-24
  AUC(0-t): 29000 ng·h/mL
[3]
  Cmax: 6990 ng/mL
[3]; read-out: Mean AUC0-24
  AUC(0-t): 52300 ng·h/mL
[4]; after 0.5 h
  Soluble fraction: 0.38 mg/mL of EYP001
[4]; after 1 h
  Soluble fraction: 0.45 mg/mL of EYP001
[4]; after 2 h
  Soluble fraction: 0.51 mg/mL of EYP001
[4]; after 24 h
  Soluble fraction: 0.62 mg/mL of EYP001
[4]; pH given with the soluble fraction, after 0.5 h
  pH: (pH = 4.9)
[4]; pH given with the soluble fraction, after 1 h
  pH: (pH = 6.4)
[4]; pH given with the soluble fraction, after 2 h
  pH: (pH = 4.9)
[4]; pH given with the soluble fraction, after 24 h
  pH: (pH = 4.9)
[5]
  Cmax: 1350 ng/mL
[5]; read-out: Mean AUC0-24
  AUC(0-t): 3970 ng·h/mL
[6]; after 0.5 h
  Soluble fraction: 0.004 mg/mL of EYP001
[6]; after 1 h
  Soluble fraction: 0.003 mg/mL of EYP001
[7]; 37° C.
  Soluble fraction: 0.20 mg/mL of EYP001
[7]; pH given with the soluble fraction
  pH: 6.4

## NCCCC[C@H](N)C(=O)O.O=C(O)c1cc2c(Cl)c(N3CCN(S(=O)(=O)c4c(Cl)cccc4Cl)CC3)ccc2o1 [EYP001 L-lysine salt amorphous form, L-lysine salt of 4-chloro-5-[4-(2,6-dichlorophenyl)sulfonylpiperazin-1-yl]-1-benzofuran-2-carboxylic acid]
[8]; [12]
  Results: solid
  XRPD: Amorphous
[8]; [13]
  Results: solid
  XRPD: Form I
[8]; [14]
  Results: solid
  XRPD: Form I
[8]; Entry 9*: no solvent, milling
  Results: solid
  XRPD: Amorphous
[8]; [15]
  Results: solid
  XRPD: Amorphous
[1]; [16]
  Mean AUClast: 4764.7 ng·h/mL
  Mean Cmax: 2130.0 ng/mL
[1]; [17]
  % increase/EYP001 (AUClast): +41.1%
  % increase/EYP001 (Cmax): +47.4%
[9]
  time found stable: at least 19 days
[4]; [18]
  Soluble fraction: 1.12 mg/mL of EYP001
[4]; [19]
  Soluble fraction: 1.13 mg/mL of EYP001
[4]; after 2 h, listed as EYP001 L-Lysine salt (Amorphous form)
  Soluble fraction: 1.12 mg/mL of EYP001
[4]; after 24 h, listed as EYP001 L-Lysine salt (Amorphous form)
  Soluble fraction: 1.11 mg/mL of EYP001
[4]; pH printed with the soluble fraction, after 0.5 h, listed as EYP001 L-Lysine salt (Amorphous form)
  pH: (pH = 4.9)
[4]; pH printed with the soluble fraction, after 1 h, listed as EYP001 L-Lysine salt (Amorphous form)
  pH: (pH = 4.9)
[4]; pH printed with the soluble fraction, after 24 h, listed as EYP001 L-Lysine salt (Amorphous form)
  pH: (pH = 5.0)
[10]; 25° C.
  stability at high relative humidity (DVS): unstable at high relative humidity
[10]; 25° C./0% RH before sorption
  mass loss during preliminary drying phase: 2.6%
[10]; 25° C./40% RH
  water uptake upon sorption (DVS): 3.5 % wt.
[10]; 25° C./60% RH, listed as EYP001 L-Lysine salt amorphous form
  water uptake (DVS): 6.8%
[10]; 25° C./75% RH
  water uptake upon sorption (DVS): 11.5 % wt.
[10]; 25° C./95% RH
  water uptake upon sorption (DVS), after drastic decrease: 4 % wt.
[10]; 25° C., listed as EYP001 L-Lysine salt amorphous form
  maximum hysteresis sorption/desorption: 10.3%
[10]; back to 25° C./0% RH after full cycle
  mass below the initial mass after desorption: about 1.3 % wt.
[10]; hygroscopic above 2% mass gain at 25° C./60% RH, listed as EYP001 L-Lysine salt amorphous form
  hygroscopicity (DVS): hygroscopic
[6]; [18]
  Soluble fraction: 0.029 mg/mL of EYP001
[6]; [19]
  Soluble fraction: 0.023 mg/mL of EYP001
[11]; heater ramp 10 ° C./min, nitrogen
  onset temperature of thermal decomposition (TGA): 241 °C
[11]; upon heating
  mass loss before the beginning of thermal decomposition (TGA): 2.4%
